Patent US10710978B2, “STK4 inhibitors for treatment of hematologic malignancies” (Dana-Farber Cancer Institute, Inc., priority 2015, dated 2020)

Target: ITPK1 (Homo sapiens (Human), UniProt Q13572)
Experiment: KiNativ assay
Assay type: binding
Settings: H929 live cell, range class
Description: Biochemical IC50s of the compounds of the present disclosure against various kinases were measured in a KiNativ assay. Compounds were screened in duplicate at 10 μM in H929 live cell. IC50 was measured via Mass spectroscopy (MS).

Sequence of ITPK1 (Q13572 whole entry): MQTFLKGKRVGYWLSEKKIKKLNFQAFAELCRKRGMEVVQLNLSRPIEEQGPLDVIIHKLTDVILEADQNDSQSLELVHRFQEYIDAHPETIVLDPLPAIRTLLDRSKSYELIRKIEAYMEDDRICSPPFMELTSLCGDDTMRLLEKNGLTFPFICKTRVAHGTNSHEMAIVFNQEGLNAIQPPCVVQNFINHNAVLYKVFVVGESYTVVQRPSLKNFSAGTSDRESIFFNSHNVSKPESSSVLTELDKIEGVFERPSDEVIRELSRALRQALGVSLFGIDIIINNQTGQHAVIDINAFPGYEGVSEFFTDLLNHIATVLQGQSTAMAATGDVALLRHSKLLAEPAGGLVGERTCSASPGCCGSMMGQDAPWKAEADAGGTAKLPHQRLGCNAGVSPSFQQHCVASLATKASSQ

Nc1ncc(-c2ccc(NS(=O)(=O)C3CC3)cc2OC2CCCCC2)cc1-c1ccc2c(c1)CCNC2=O [Compound I-65, N-(4-(6-amino-5-(1-oxo-1,2,3,4-tetrahydroisoquinolin-6-yl)pyridin-3-yl)-3-(cyclohexyloxy)phenyl) cyclopropanesulfonamide]
inhibition at 10 µM: > 100%
